Data taken from patent US12077503B2, “Substituted cyclic amides and their use as herbicides” (FMC CORPORATION, priority 2015, dated 2024).

Experiments:
Format in all cases: in vivo
rice (Oryra sativa) = assay: Test B flooded paddy test; details: Flood, 0 to 100 scale where 0 is no effect and 100 is complete control, 13 to 15 d
Procedure: (§1) Plant species in the flooded paddy test selected from rice (Oryra sativa), sedge, umbrella (small-flower umbrella sedge, Cyperus difformis), ducksalad (Heteranthera limosa), and barnyardgrass (Echinochloa crus-galli) were grown to the 2-leaf stage for testing. At time of treatment, test pots were flooded to 3 cm above the soil surface, treated by application of test compounds directly to the paddy water, and then maintained at that water depth for the duration of the test. Treated plants and controls were maintained in a greenhouse for 13 to 15 d, after which time all species were compared to controls and visually evaluated. Plant response ratings, summarized in Table B, are based on a scale of 0 to 100 where 0 is no effect and 100 is complete control. A dash (-) response means no test result.

[1] = tested on: sedge, umbrella (small-flower umbrella sedge, Cyperus difformis); assay: Test B flooded paddy test; details: Flood, 0 to 100 scale where 0 is no effect and 100 is complete control, 13 to 15 d
Procedure: as §1

[2] = tested on: ducksalad (Heteranthera limosa); assay: Test B flooded paddy test; details: Flood, 0 to 100 scale where 0 is no effect and 100 is complete control, 13 to 15 d
Procedure: as §1

[3] = tested on: barnyardgrass (Echinochloa crus-galli); assay: Test B flooded paddy test; details: Flood, 0 to 100 scale where 0 is no effect and 100 is complete control, 13 to 15 d
Procedure: as §1

[4] = tested on: ragweed (common ragweed, Ambrosia elatior); assay: Test A preemergence; details: for Plant response rating, Ragweed: 125 g ai/ha, preemergence, 0 to 100 scale (0 no effect, 100 complete control)
Text: (§2) Seeds of plant species selected from barnyardgrass (Echinochloa crus-galli), Kochia (Kochia scoparia), ragweed (common ragweed, Ambrosia elatior), ryegrass, Italian (Italian ryegrass, Lolium multiflorum), crabgrass, large (Digitaria sanguinalis), giant foxtail (Setaria faberii), green foxtail (Setaria viridis), morningglory (Ipomoea spp.), pigweed (Amaranthus retroflexus), velvetleaf (Abutilon theophrasti), wheat (Triticum aestivum), and corn (Zea mays) were planted into a blend of loam soil and sand and treated preemergence with a directed soil spray using test chemicals formulated in anon-phytotoxic solvent mixture which included a surfactant.
(§3) At the same time, plants selected from these crop and weed species and also blackgrass (Alopecurus myosuroides), and Galium (catchweed bedstraw, Galium aparine) were planted in pots containing the same blend of loam soil and sand and treated with postemergence applications of test chemicals formulated in the same manner. Plants ranged in height from 2 to 10 cm and were in the one- to two-leaf stage for the postemergence treatment. Treated plants and untreated controls were maintained in a greenhouse for approximately 10 d, after which time all treated plants were compared to untreated controls and visually evaluated for injury. Plant response ratings, summarized in Table A, are based on a 0 to 100 scale where 0 is no effect and 100 is complete control. A dash (-) response means no test result.

[5] = tested on: ryegrass, Italian (Italian ryegrass, Lolium multiflorum); assay: Test A preemergence; details: for Plant response rating, Ryegrass, Italian: 125 g ai/ha, preemergence, 0 to 100 scale (0 no effect, 100 complete control); for Ryegrass, Italian plant response rating (0 to 100 scale): Preemergence, 500 g ai/ha, 0 is no effect, 100 is complete control
Text: as §2, §3

Kochia (Kochia scoparia) [6] = assay: Test A preemergence; details: for Plant response rating, Kochia: 125 g ai/ha, preemergence, 0 to 100 scale (0 no effect, 100 complete control); for Kochia plant response rating (0 to 100 scale): Preemergence, 500 g ai/ha, 0 is no effect, 100 is complete control
Text: as §2, §3

[7] = tested on: pigweed (Amaranthus retroflexus); assay: Test A preemergence; details: for Plant response rating, Pigweed: 125 g ai/ha, preemergence, 0 to 100 scale (0 no effect, 100 complete control); for Pigweed plant response rating (0 to 100 scale): Preemergence, 500 g ai/ha, 0 is no effect, 100 is complete control
Text: as §2, §3

[8] = tested on: giant foxtail (Setaria faberii); assay: Test A preemergence; details: for Plant response rating, Foxtail, Giant: 125 g ai/ha, preemergence, 0 to 100 scale (0 no effect, 100 complete control); for Foxtail, Giant plant response rating (0 to 100 scale): Preemergence, 500 g ai/ha, 0 is no effect, 100 is complete control
Text: as §2, §3

[9] = tested on: barnyardgrass (Echinochloa crus-galli); assay: Test A preemergence; details: for Plant response rating, Barnyardgrass: 125 g ai/ha, preemergence, 0 to 100 scale (0 no effect, 100 complete control); for Barnyardgrass plant response rating (0 to 100 scale): Preemergence, 500 g ai/ha, 0 is no effect, 100 is complete control
Text: as §2, §3

[10] = tested on: ragweed (common ragweed, Ambrosia elatior); assay: Test A postemergence; details: postemergence; for Ragweed plant response rating: 125 g ai/ha, visual injury rating on 0 to 100 scale (0 no effect, 100 complete control), approx. 10 d; for Plant response rating, Ragweed: 500 g ai/ha, 0 to 100 scale, 0 no effect, 100 complete control
Text: as §2, §3

[11] = tested on: Galium (catchweed bedstraw, Galium aparine); assay: Test A postemergence; details: postemergence; for Galium plant response rating: 125 g ai/ha, visual injury rating on 0 to 100 scale (0 no effect, 100 complete control), approx. 10 d; for Plant response rating, Galium: 500 g ai/ha, 0 to 100 scale, 0 no effect, 100 complete control
Text: as §2, §3

[12] = tested on: ryegrass, Italian (Italian ryegrass, Lolium multiflorum); assay: Test A postemergence; details: postemergence; for Ryegrass, Italian plant response rating: 125 g ai/ha, visual injury rating on 0 to 100 scale (0 no effect, 100 complete control), approx. 10 d; for Plant response rating, Ryegrass, Italian: 500 g ai/ha, 0 to 100 scale, 0 no effect, 100 complete control
Text: as §2, §3

[13] = tested on: blackgrass (Alopecurus myosuroides); assay: Test A postemergence
Text: as §2, §3

Kochia (Kochia scoparia) [14] = assay: Test A postemergence; details: postemergence; for Kochia plant response rating: 125 g ai/ha, visual injury rating on 0 to 100 scale (0 no effect, 100 complete control), approx. 10 d; for Plant response rating, Kochia: 500 g ai/ha, 0 to 100 scale, 0 no effect, 100 complete control
Text: as §2, §3

[15] = tested on: pigweed (Amaranthus retroflexus); assay: Test A postemergence; details: postemergence; for Pigweed plant response rating: 125 g ai/ha, visual injury rating on 0 to 100 scale (0 no effect, 100 complete control), approx. 10 d; for Plant response rating, Pigweed: 500 g ai/ha, 0 to 100 scale, 0 no effect, 100 complete control
Text: as §2, §3

[16] = tested on: wheat (Triticum aestivum); assay: Test A postemergence; details: postemergence; for Wheat plant response rating: 125 g ai/ha, visual injury rating on 0 to 100 scale (0 no effect, 100 complete control), approx. 10 d; for Plant response rating, Wheat: 500 g ai/ha, 0 to 100 scale, 0 no effect, 100 complete control
Text: as §2, §3

[17] = tested on: giant foxtail (Setaria faberii); assay: Test A postemergence; details: postemergence; for Foxtail, Giant plant response rating: 125 g ai/ha, visual injury rating on 0 to 100 scale (0 no effect, 100 complete control), approx. 10 d; for Plant response rating, Foxtail, Giant: 500 g ai/ha, 0 to 100 scale, 0 no effect, 100 complete control
Text: as §2, §3

corn (Zea mays) = assay: Test A postemergence; details: postemergence; for Corn plant response rating: 125 g ai/ha, visual injury rating on 0 to 100 scale (0 no effect, 100 complete control), approx. 10 d; for Plant response rating, Corn: 500 g ai/ha, 0 to 100 scale, 0 no effect, 100 complete control
Text: as §2, §3

[18] = tested on: barnyardgrass (Echinochloa crus-galli); assay: Test A postemergence
Text: as §2, §3

[19] = 500 g ai/ha, postemergence, 0 to 100 scale, 0 no effect, 100 complete control
[20] = Postemergence, 125 g ai/ha, visual injury, 0 to 100 scale (0 no effect, 100 complete control), approx. 10 d

Structure (SMILES) | Plant response rating, Ragweed [4] | Plant response rating, Ryegrass, Italian [5] | Ryegrass, Italian plant response rating (0 to 100 scale) [5] | Plant response rating, Kochia (Kochia (Kochia scoparia) [6]) | Kochia plant response rating (0 to 100 scale) (Kochia (Kochia scoparia) [6]) | Plant response rating, Pigweed [7] | Pigweed plant response rating (0 to 100 scale) [7] | Plant response rating, Foxtail, Giant [8] | Foxtail, Giant plant response rating (0 to 100 scale) [8] | Plant response rating, Barnyardgrass [9] | Barnyardgrass plant response rating (0 to 100 scale) [9] | Ragweed plant response rating [10] | Plant response rating, Ragweed [10] | Galium plant response rating [11] | Plant response rating, Galium [11] | Ryegrass, Italian plant response rating [12] | Plant response rating, Ryegrass, Italian [12] | Plant response rating, Blackgrass [13, 19] | Plant response rating, Blackgrass [13, 20] | Kochia plant response rating (Kochia (Kochia scoparia) [14]) | also measured
COc1cccc(C2CNC(=O)C2C(=O)Nc2cccc(F)c2F)c1 (racemic) [Compound 383] | 0 | 0 | 20 | 0 | 20 | 0 | 0 | 50 | 70 | 50 | 90 | 0 | 20 | 0 | 0 | 20 | 30 | 0 | 0 | 0 | Plant response rating, Rice (rice (Oryra sativa); 250 g ai/ha): 0; Plant response rating, Sedge, Umbrella ([1]; 250 g ai/ha): 0; Plant response rating, Ducksalad ([2]; 250 g ai/ha): 30; Plant response rating, Barnyardgrass ([3]; 250 g ai/ha): 0; Ragweed plant response rating (0 to 100 scale) ([4]; Preemergence, 500 g ai/ha, 0 is no effect, 100 is complete control): 0; Plant response rating, Kochia (Kochia (Kochia scoparia) [14]): 30; Pigweed plant response rating [15]: 0; Plant response rating, Pigweed [15]: 0; Wheat plant response rating [16]: 0; Plant response rating, Wheat [16]: 0; Foxtail, Giant plant response rating [17]: 30; Plant response rating, Foxtail, Giant [17]: 50; Corn plant response rating (corn (Zea mays)): 0; Plant response rating, Corn (corn (Zea mays)): 0; Plant response rating, Barnyardgrass [18, 19]: 90; Plant response rating, Barnyardgrass [18, 20]: 70
COc1c(F)ccc(NC(=O)C2C(=O)NCC2c2cccc(C(F)(F)F)c2)c1F (racemic) [Compound 386] | 0 | 30 | 50 | 0 | 0 | 0 | 0 | 80 | 90 | 80 | 80 | 0 | 30 | 50 | 60 | 20 | 50 | 70 | 50 | 0 | Plant response rating, Rice (rice (Oryra sativa); 500 g ai/ha): 15; Plant response rating, Sedge, Umbrella ([1]; 500 g ai/ha): 0; Plant response rating, Ducksalad ([2]; 500 g ai/ha): 70; Plant response rating, Barnyardgrass ([3]; 500 g ai/ha): 60; Plant response rating, Kochia (Kochia (Kochia scoparia) [14]): 0; Pigweed plant response rating [15]: 0; Plant response rating, Pigweed [15]: 10; Wheat plant response rating [16]: 30; Plant response rating, Wheat [16]: 50; Foxtail, Giant plant response rating [17]: 70; Plant response rating, Foxtail, Giant [17]: 80; Corn plant response rating (corn (Zea mays)): 40; Plant response rating, Corn (corn (Zea mays)): 80; Plant response rating, Barnyardgrass [18, 19]: 80; Plant response rating, Barnyardgrass [18, 20]: 70
